Reference: PubChem BioAssay (NCI)
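Cells were grown in 96-well plates and exposed to each compound for 48 hours at five concentrations; endpoints were interpolated linearly between bracketing concentrations, or set to the highest concentration if not reached. TGI denotes the concentration required for complete inhibition of growth.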

What was measured:
Test in all cases: NCI-60 cell line screen, 48 h
[1] = test system: 786-0 renal
[2] = test system: A498 renal
[3] = test system: A549 NSCLC
[4] = test system: ACHN renal
[5] = test system: BT-549 breast
[6] = test system: CAKI-1 renal
[7] = test system: CCRF-CEM leukemia
[8] = test system: COLO 205 colon
[9] = test system: DU-145 prostate
[10] = test system: EKVX NSCLC
[11] = test system: HCT-116 colon
[12] = test system: HCT-15 colon
[13] = test system: HL-60(TB) leukemia
[14] = test system: HOP-62 NSCLC
[15] = test system: HOP-92 NSCLC
[16] = test system: HS 578T breast
[17] = test system: HT29 colon
[18] = test system: IGROV1 ovarian
[19] = test system: K-562 leukemia
[20] = test system: KM12 colon
[21] = test system: LOX IMVI melanoma
[22] = test system: M14 melanoma
[23] = test system: MALME-3M melanoma
[24] = test system: MDA-MB-231 breast
[25] = test system: MDA-MB-435
[26] = test system: MDA-N
[27] = test system: MOLT-4 leukemia
[28] = test system: NCI-H226 lung
[29] = test system: NCI-H23 lung
[30] = test system: NCI-H460 lung
[31] = test system: NCI-H522 lung
[32] = test system: NCI/ADR-RES ovarian
[33] = test system: OVCAR-3 ovarian
[34] = test system: OVCAR-4 ovarian
[35] = test system: OVCAR-5 ovarian
[36] = test system: OVCAR-8 ovarian
[37] = test system: PC-3 prostate
[38] = test system: RPMI-8226 leukemia
[39] = test system: RXF 393 renal
[40] = test system: SF-268 CNS
[41] = test system: SF-295 CNS
[42] = test system: SF-539 CNS
[43] = test system: SK-MEL-2 melanoma
[44] = test system: SK-MEL-28 melanoma
[45] = test system: SK-MEL-5 melanoma
[46] = test system: SK-OV-3 ovarian
[47] = test system: SN12C renal
[48] = test system: SNB-19 CNS
[49] = test system: SR leukemia
[50] = test system: SW-620 colon
[51] = test system: T-47D breast
[52] = test system: TK-10 renal
[53] = test system: U251 CNS
[54] = test system: UACC-257 melanoma
[55] = test system: UACC-62 melanoma
[56] = test system: UO-31 renal

## C[C@H](NC1=CC(=O)C(N[C@@H](C)[C@H](O)c2ccccc2)=CC1=O)[C@H](O)c1ccccc1
[1]
  TGI: > 100 µM
[2]
  TGI: > 100 µM
[3]
  TGI: > 100 µM
[4]
  TGI: > 100 µM
[5]
  TGI: > 100 µM
[6]
  TGI: > 100 µM
[7]
  TGI: > 100 µM
[8]
  TGI: > 100 µM
[9]
  TGI: > 100 µM
[10]
  TGI: > 100 µM
[11]
  TGI: > 100 µM
[12]
  TGI: > 100 µM
[13]
  TGI: > 100 µM
[14]
  TGI: > 100 µM
[15]
  TGI: > 100 µM
[16]
  TGI: > 100 µM
[17]
  TGI: 63.7 µM
[18]
  TGI: > 100 µM
[19]
  TGI: > 100 µM
[20]
  TGI: > 100 µM
[21]
  TGI: > 100 µM
[22]
  TGI: > 100 µM
[23]
  TGI: > 100 µM
[24]
  TGI: > 100 µM
[25]
  TGI: > 100 µM
[26]
  TGI: > 100 µM
[27]
  TGI: > 100 µM
[28]
  TGI: > 100 µM
[29]
  TGI: > 100 µM
[30]
  TGI: > 100 µM
[31]
  TGI: > 100 µM
[32]
  TGI: > 100 µM
[33]
  TGI: > 100 µM
[34]
  TGI: > 100 µM
[35]
  TGI: > 100 µM
[36]
  TGI: > 100 µM
[37]
  TGI: > 100 µM
[38]
  TGI: > 100 µM
[39]
  TGI: > 100 µM
[40]
  TGI: > 100 µM
[41]
  TGI: > 100 µM
[42]
  TGI: > 100 µM
[43]
  TGI: > 100 µM
[44]
  TGI: > 100 µM
[45]
  TGI: > 100 µM
[46]
  TGI: > 100 µM
[47]
  TGI: > 100 µM
[48]
  TGI: > 100 µM
[49]
  TGI: > 100 µM
[50]
  TGI: > 100 µM
[51]
  TGI: > 100 µM
[52]
  TGI: > 100 µM
[53]
  TGI: > 100 µM
[54]
  TGI: > 100 µM
[55]
  TGI: > 100 µM
[56]
  TGI: > 100 µM
